Results as given in patent publication US10881679B2, “Application of a phillyrin/phillygeninin composition in preparing a medicine or health care product for alleviating or/and treating viral diseases, and medicine or health care product for treating viral diseases” (priority 2014, dated 2021).
Where two headings read alike, the source gives them in different places. Marks after values point to notes of the source that are not given here.

Tests used:
[1] = tested on: Vero cells; test: Cytotoxicity test (MTT) on Vero cells; format: cell-based, African green monkey; conditions: 72 h
Description: Cytotoxicity test: the drugs were diluted according to the concentrations shown in table 1-1 for determination of cytotoxicity. […] In addition, 6 wells were set up as normal control group (without drugs) while another 6 pores as blank control group (medium only). Cells were grown in a 37° C. incubator under 5% CO2. […] After 72 h, 20 μL MTT solution (5 mg·mL^−1) was added into each well to continue incubation for 4 h. The culture medium in each well was sucked and discarded, 100 μL DMSO was added to each well. Then the culture was shaken for 5 min, measured OD value at 492 nm to calculate the cell survival ratio. The cell survival ratio was analyzed using a Probit regression model in SPSS 18.0 statistical software, and the maximal nontoxic concentration (TC0) and median toxic concentration (TC50) of drugs against Vero cells were calculated.

[2] = tested on: influenza virus; test: Impact on virus-induced cytopathic effect in Vero cells (MTT): influenza virus; format: cell-based
[3] = tested on: parainfluenza virus; test: Impact on virus-induced cytopathic effect in Vero cells (MTT): parainfluenza virus; format: cell-based; conditions: parainfluenza virus 100TCID50, Vero, 72 h; drug g/L as Table 1-2
[4] = tested on: enterovirus EV71; test: Impact on virus-induced cytopathic effect in Vero cells (MTT): EV71; format: cell-based; conditions: EV71 100TCID50, Vero, 72 h; drug g/L as Table 1-2
[5] = tested on: parainfluenza virus; format: in vivo, Kunming mice; conditions: 13.0 mg/kg/d i.g. 5 days
[6] = tested on: sweat gland epithelial cells of rat paws; test: Sweat secretion of rat paws (histomorphological observation method); format: in vivo, Wistar rats; conditions: dose not given; i.g., 1 h after administration
Source text: This test is based on a mechanism that when a rat is in an excited state, in addition to the increase of sweat secretion of sweat glands, the morphology of sweat gland epithelial cells changes accordingly. Under an optical microscope, it can be seen that the sweat gland epithelial cell vacuoles increase in number and expand. Under an electron microscope, such expanded vacuoles appear to be mitochondria in the sweat gland epithelial cell swelling, breakage and fusion and expansion of secretory vesicle. Therefore, through histomorphological observation of sweat gland epithelial tissue of a rat paw, secretory activities of the sweat gland can be known.
300 Wistar rats with equal male and female number, weighing 120˜160 g were used. These rats were randomly divided into 30 groups by weight and gender: control groups (0.5% of methyl cellulose), phillygeninin groups, phillyrin groups, low, medium and high dose groups (2.5, 5, 10 mg/kg) of phillyrin/phillygeninin compositions A and B separately, and positive drug pilocarpine groups (35 mg/kg). Each group has 10 rats, the test is repeated 3 times for each group. Pilocarpine solution was administered by subcutaneous injection, the remaining groups were subjected to intragastric administration. After administration of the 0.5% of methyl cellulose in the control group for one hour, after administration of the pilocarpine in the positive drug group for 30 min, and after administration of the phillyrin, the phillygeninin and the phillyrin/phillygeninin composition for one hour, the right hind limb was instantly cut off at the ankle joint to immediately take down the footpad of the right hind limb and placed into 10% of formaldehyde solution. The footpads were fixed, dehydrated, embedded, sliced and stained with HE by using conventional methods. Changes in sweat gland epithelial cells of the rat paws from each group were observed under an optical microscope, to mainly observe the percentage of vacuolization. The differences among the various groups was performed through X^2 test for statistical analysis. The above test was repeated 3 times. Percentage of vacuolization=(the number of vacuolized sweat glands)/(the number of sweat glands observed)×100%.

[7] = tested on: rabbit fever induced by typhoid and paratyphoid vaccine; test: Rabbit fever induced by typhoid and paratyphoid vaccine; format: in vivo, Japanese big-ear white rabbits; conditions: 5.2 mg/kg i.g.
Description: Male Japanese big-ear white rabbits with a weight 1.5˜2.0 kg were used. Before the test, WSC-411P portable digital thermometer was used to measure the normal rectal temperature twice (with certain interval for each time), and the average value was taken as the normal body temperature of rabbits. […] Each group has 6 rabbits, and the test was repeated 3 times for each group. Rabbits were fixed into a fixator. The blank control group was intravenously injected with normal saline of 1 ml/kg via the ear margin; The model control group and each drug group were intravenously injected with typhoid and paratyphoid vaccines of 0.8 ml/kg via the ear margin. After the body temperatures of the rabbits increased by 1° C. or more (requiring about 1˜1.5 h, and this test was limited to 1 h), the blank control group and the model group were administered intragastrically with 0.5% carboxymethycellulose of 1 ml/kg, and the drug groups were administered intragastrically with phillyrin/phillygeninin compositions and paracetamol respectively. The rectal temperature was measured after administration for 30, 60, 90, 120, 180 and 240 min to observe the changes in the body temperature, and difference between the groups was compared by inter-group t test processing through antipyretic percentage.

[8] = tested on: rat paw swelling induced by carrageenin; test: Rat paw swelling induced by carrageenin; format: in vivo, Wistar rats; conditions: 10.0 mg/kg
Description: Each group has 10 rats. Rats in each group were all administered by […] through the sublingual vein. Normal volume of the right hind paw of each rat in each group was measured in capillary magnification measurement method. In order to avoid errors, the measurement should be carried out in a fixed position and operated by the same person before and after administration. A mean of the two measurement values was taken as the normal volume of the right hind paw of a rat before administration. […] The difference between the groups was compared by inter-group t test processing through the difference percentage (swelling ratio) of the paw volume before and after the induced rat inflammation. [formula] Results

[9] = 15 min after inflammation induction
[10] = 30 min after inflammation induction
[11] = 60 min after inflammation induction
[12] = 120 min after inflammation induction
[13] = 180 min after inflammation induction
[14] = 240 min after inflammation induction
[15] = 300 min after inflammation induction
[16] = 360 min after inflammation induction

Row | Compound | half toxic concentration (TC50) [1] [µg/mL] | maximal non-toxic concentration (TC0) [1] [g/L] | antiviral effective rate (ER %) [3] | antiviral effective rate (ER %) [4] | Lung index [5] | Lung index inhibition rate [5] | Number of sweat glands of vacuole [6] | percentage of vacuolization (%) [6] | Body temperature ([7]; 30 min after administration) [°C] | antipyretic percentage (%) ([7]; 30 min after administration) | Body temperature ([7]; 60 min after administration) [°C] | antipyretic percentage (%) ([7]; 60 min after administration) | Body temperature ([7]; 90 min after administration) [°C] | antipyretic percentage (%) ([7]; 90 min after administration) | Body temperature ([7]; 120 min after administration) [°C] | antipyretic percentage (%) ([7]; 120 min after administration) | Body temperature ([7]; 180 min after administration) [°C] | antipyretic percentage (%) ([7]; 180 min after administration) | Body temperature ([7]; 240 min after administration) [°C] | antipyretic percentage (%) ([7]; 240 min after administration) | further results
1 | COc1cc([C@H]2OC[C@H]3[C@@H]2CO[C@H]3c2ccc(OC)c(OC)c2)ccc1O [Phillygeninin, phillygeninin] | 297 | 0.011 | 80.72** % | 75.86** % | 1.357 ± 0.050 | 14.69 | 79 | 20.26** % | 41.06 ± 0.26 | −0.10 ± 0.11 | 40.86 ± 0.21 | −0.49 ± 0.10 | 40.74 ± 0.22 | −0.77 ± 0.22 | 40.65 ± 0.27 | −1.00 ± 0.18 | 40.49 ± 0.23 | −1.39 ± 0.17 | 40.30 ± 0.25 | −1.85 ± 0.15 | antiviral effective rate (ER %) [2]: 75.35** %; Swelling percentage (%) [8, 9]: 14.9 ± 6.13%; Swelling percentage (%) [8, 10]: 21.9 ± 9.72%; Swelling percentage (%) [8, 11]: 27.1 ± 13.5%; Swelling percentage (%) [8, 12]: 30.7 ± 10.2 %; Swelling percentage (%) [8, 13]: 33.8 ± 12.1 %; Swelling percentage (%) [8, 14]: 31.0 ± 11.3 %; Swelling percentage (%) [8, 15]: 35.8 ± 13.5 %; Swelling percentage (%) [8, 16]: 36.4 ± 10.2%
2 | COc1ccc([C@H]2OCC3C2CO[C@H]3c2ccc(O[C@@H]3OC(CO)[C@@H](O)[C@H](O)C3O)c(OC)c2)cc1OC (stereo partly shown) [phillyrin] | 550 | 0.0066 | 84.96** % | 84.85** % | 1.335 ± 0.062 | 16.10 | 86 | 22.15** % | 40.83 ± 0.26 | −0.37 ± 0.15 | 40.58 ± 0.21 | −0.61 ± 0.12 | 40.43 ± 0.22 | −0.97 ± 0.27 | 40.37 ± 0.27 | −1.13 ± 0.14 | 40.16 ± 0.23 | −1.65 ± 0.12 | 39.92 ± 0.25 | −2.22 ± 0.11 | antiviral effective rate (ER %) ([2]; influenza virus 100TCID50, Vero, 72 h, drug g/L (Table 1-2): phillyrin 0.01, Phillygeninin 0.02, compositions A, B 0.01, Ribavirin 0.70, oseltamivir phosphate 0.30): 75.38** %; Swelling percentage (%) [8, 9]: 12.9 ± 8.41%; Swelling percentage (%) [8, 10]: 19.9 ± 9.55%; Swelling percentage (%) [8, 11]: 21.8 ± 11.8 %; Swelling percentage (%) [8, 12]: 28.9 ± 14.0 %; Swelling percentage (%) [8, 13]: 30.8 ± 15.4 %; Swelling percentage (%) [8, 14]: 29.9 ± 11.1 %; Swelling percentage (%) [8, 15]: 33.5 ± 10.0 %; Swelling percentage (%) [8, 16]: 32.2 ± 11.9 %
